Reference: patent publication US9648880B2, “Antifungal agents and uses thereof” (University of Massachusetts, priority 2012, dated 2017)
“Also recorded” adds a separate entry of the source.

Assays:
Type in all cases: cell-based, Candida albicans
C. albicans SC5314 = experiment: alamarBlue-based polystyrene adhesion assay; settings: for C. albicans adhesion to polystyrene: 25 μM
Source text: We prioritized the candidate compounds by testing the dose-dependence of their effects. Because of the laborious washing required to remove background crystal violet dye staining, we developed adhesion assays using alternative detection reagents. Previous experiments screens have used the vital dye alamarBlue to measure Candida viability (Lafleur, J. Antimicrob Chemother. 66: 820-826, 2011; Youngsaye supra), so we tested this reagent as a way to measure cells remaining adhered after washing. […] The majority of the reordered compounds were effective at reducing Candida adhesion at 50 μM, the concentration originally tested during the screen. […] Although compounds that were still effective at 25 μM were less generally less so at 7.5 μM (FIG. 1C), many candidates still reduced adhesion by >50% at this lower concentration.
Overnight cultures of SC5314 and edt1^−/− cells were grown and plated onto Immulon 2HB 96-well microtiter plates and treated with small molecules as described above. Following incubations, media was decanted and plates were washed twice with 100 μl/well PBS. alamarBlue (Life Technologies) was resuspended to a final concentration of 5% in RPMI buffered with 0.165 M MOPS and then 100 μl was added to each well, followed by further incubation for 2 hours at 37° C. Fluorescence signals at 555Ex/585Em were read using a SpectraMax M5 Plate reader (Molecular Devices).

[1] = tested on: C. albicans adherence to human lung epithelial A549 cells; experiment: epithelial cell binding assay; settings: 25 μM; 37° C., 90 min
Source text: In addition to experiments with inert surfaces, we also tested how the candidate compounds would affect C. albicans adherence to human cells, measuring binding of Green Fluorescent Protein (GFP)-encoding C. albicans cells to monolayers of human lung epithelial A549 cells, which are an effective substrate for Candida adhesion (Kitamura, Antimicrob Agents Chemother. 53: 3963-3971, 2009). […] We conclude that compound #4 is not toxic to this human cell line under our assay concentrations, but can impair fungal adhesion both to inert surfaces and to cultured human epithelial cells.
Human lung epithelial A549 cells (Giard, 1973) were grown to confluence on Nunc 48 well plates in RPMI+10% FBS and Penicillin/Streptomycin. Media was decanted and plates were carefully washed 3 times with PBS to remove unbound cells. Pre-grown overnight cultures of SC5314-GFP and edt1^−/−-GFP C. albicans cells were resuspended in fresh SC+0.2% glucose at 0.5 OD/ml and 250 μl of yeast suspension were plated onto to each well. Following incubation at 37° C. for 1.5 hours, media was decanted, and the monolayers were washed carefully 3 times with 250 μl PBS. Fluorescence from bound yeast was measured (485 Ex/535 Em) using the Synergy HT plate reader (BioTek) after addition of 100 μl PBS/well.

C. albicans = experiment: pretreatment (pre-coating) of polystyrene, then adhesion assay
Experimental: FIGS. 11A-11D. Compound #4 can coat surfaces and reduce subsequent fungal adhesion. […] is a graph showing the results of pretreatment of polystyrene with candidate compounds. Indicated compounds at 50 μM were incubated in polystyrene 96-well plates overnight. Wells were washed three times with 100 μl of PBS. C. albicans adhesion was then measured using the vital dye alamarBlue, with no additional drug treatment. FIG. 11B is a graph showing titration of compounds #1, 4 and 9 for pre-binding to polystyrene. Indicated concentrations of compounds were pre-incubated with polystyrene plates as above prior to the adhesion assays. FIG. 11C is a graph showing the inhibition of adhesion by pretreatment of C. albicans SC5314 cells with compound #4 prior to introduction to plastic. SC5314 cells were treated with 25 μM compound #4 or DMSO in liquid culture prior to their introduced into polystyrene plates. Cells were washed with PBS prior to resuspension into SCM and seeding into 96-well plates for adhesion assays using alamarBlue detection of remaining cells. The pretreated cells were assayed alongside a standard adhesion assay in which compound #4 and the cells were coincubated with the plastic simultaneously. FIG. 11D is a graph showing the results of an assay performed as in FIG. 11C, except that SC5314-GFP cells were used, and then detected via fluorescence measurement. edt1 indicates non-adherent mutant cells, PBS indicates background fluorescence in absence of cells.
Because compounds #4 and #9 contain a nitrophenyl group (FIG. 3A), solutions containing these appear yellow. […] To test this idea, we preincubated polystyrene plates with each of the compounds that affect adhesion to polystyrene, washed to remove unbound compound molecules, and then added C. albicans cells to measure adhesion without further addition of compound.
To distinguish the three pre-coating compounds, we then titrated them in this pre-coating assay (FIG. 11B). […] We also tested whether compound #4 could affect fungal adhesion when it was used to pre-coat C. albicans cells rather than the polystyrene surface. […] We conclude that compound #4 has the ability to make polystyrene and the C. albicans cell surface less amenable to subsequent adhesion.

Row | Compound | C. albicans adhesion to polystyrene (C. albicans SC5314) | synergy on adhesion upon combining compound #4 and compound #12 (C. albicans SC5314; #4 1.5 μM with #12 4 and 6 μM) | effect on adhesion of compound alone (C. albicans SC5314; compound #4 1.5 μM, compound #12 4 and 6 μM) | inhibition of C. albicans adhesion to human A549 cells [1] | subsequent adhesion of C. albicans to pre-coated polystyrene (C. albicans; 12.5 μM or below) | subsequent adhesion of C. albicans to pre-coated polystyrene (C. albicans; 25 μM) | subsequent adhesion of C. albicans to pre-coated polystyrene (C. albicans; 50 μM, overnight, washed)
1 | Cc1ccc(C(=O)N2CCN(c3ccc([N+](=O)[O-])cc3)CC2)cc1Cl [Compound 4] | effective adhesion inhibitors | did not further reduce adhesion | partial effects | by far the strongest inhibitor of adhesion to human epithelial cells; also recorded: strongly inhibited | much less so | strongly inhibitory | efficiently inhibited subsequent adhesion
2 | O=C(c1ccc(Cl)c(Cl)c1)N1CCN(c2ccc([N+](=O)[O-])cc2)CC1 [Compound 9] | effective adhesion inhibitors |  |  | not #9 effectively inhibited human cell binding | much less so | strongly inhibitory | efficiently inhibited subsequent adhesion
